# Where a name gives a salt, the structure may show the parent alone. Read-outs that look alike come from different tables or passages of the source.
# Columns and labels:
# [1] = biological target: WDR5 protein (22-334aa) with MLL1 polypeptide (3672-3773aa) (Homo sapiens, UniProt P61964); assay: WDR5-MLL PPI inhibitory activity test (HTRF); format: binding; details: His-tagged WDR5 and biotin-tagged MLL1 polypeptide
# Method in brief: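 His-tagged WDR5 (42 nM working solution) was preincubated with compound for 60 min at room temperature in 25 mM HEPES pH 7.5, 100 mM NaCl, 0.05% Tween 20 (final DMSO 0.5%). Biotin-MLL1 peptide (333 nM working solution) was then added for 10 min, followed by Eu-cryptate/streptavidin-APC detection for 60 min. The 665/620 nm ratio gave IC50.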
# [2] = tested on: Jurkat cells; assay: Jurkat cell proliferation inhibition experiment (CellTiter-Glo); format: cell-based; details: for IC50: Homo sapiens, 144 h, Jurkat cells, 6 days, CellTiter-Glo, read-out: Jurkat cell proliferation inhibitory activity IC50; for selectivity: ratio of Jurkat cell IC50 to MV4-11 cell IC50
# Method: Test Example 3: Jurkat (ATCC: TIB-152) Cell Proliferation Inhibition Experiment
# (§1) ATP in living cells was quantitatively detected by CellTiter-Glo (Promega-G7573) Luminescence Cell Viability Assay Kit to determine the effect of the compounds to be tested on cell proliferation. • Step 1: Jurkat cells were seeded in 96-well plates (Greiner-655098) at a density of 1,500 cells per well with a volume of 140 μL per well; Cell culture medium components included RPM11640 (Gibco-A10491-01)+10% FBS (Gibco-10099-141C)+1% Penicillin-Streptomycin (5,000 U/mL, Gibco-15070-063). • Step 2: On the day of cell seeding, the cells were treated with the compound to be tested. The compound to be tested was diluted with a 3-fold gradient, and a total of 9 concentration gradients were set. DMSO (Sigma, D2650) with 0.5% final concentration or a DMSO solution containing the compound to be tested was added per well with 2 or 3 replicate wells at each concentration point. The plates were incubated at 37° C. in a 5% CO2 incubator (Thermo Scientific Steri-Cycle 371) for 6 days. • Step 3: The cell viability in the control and treatment groups was detected with CellTiter-Glo Luminescent Cell Viability Assay Kit. 50 μL of CellTiter-Glo was added per well, mixed well, and incubated for 15 min at room temperature protected from light. According to the kit instructions, the chemiluminescence signal was read using a multifunctional microplate reader (EnVision, PerkinElmer).
# (§2) The inhibition percentage (%) of the compound at each concentration point was calculated by the following formula:
# (§3) Inhibition Percentage (%)=(1−signal value of the group treated with the compound/signal value of the group treated with DMSO)*100.
# The value of cell proliferation semi-inhibitory concentration IC50 was calculated using GraphPad Prism software, and the results are shown in Table 3. The ratio of Jurkat cell proliferation inhibitory activity IC50 to MV4-11 cell proliferation inhibitory activity IC50 may be further calculated to obtain selectivity.
# [3] = tested on: MV4-11 cells; assay: MV4-11 cell proliferation inhibition experiment (CellTiter-Glo); format: cell-based; details: 6 days
# Method: Test Example 2: MV4-11 Cell (ATCC: CRL-9591) Proliferation Inhibition Experiment
# as §1, with “MV4-11” for “Jurkat”
# as §2, §3
# The value of cell proliferation semi-inhibitory concentration IC50 was calculated using GraphPad Prism software, and the results are shown in Table 2.
# [4] = Homo sapiens, 144 h, read-out: MV4-11 cell proliferation inhibitory activity IC50
# [5] = Homo sapiens, 144 h, read-out: cell proliferation inhibitory activity
Compound,IC50 [1],IC50 [2],selectivity [2],"IC50 [3, 4]","IC50 [3, 5]",IC50 ([3]; read-out: cell proliferation inhibitory activity)
"CCOc1cc([C@H](C)N2C[C@@]3(CC3(F)F)c3c(CN(C)C)cc(Cn4ccnc4NC)cc3C2=O)ncc1C#N (stereo in doubt) [Compound 94, 6-(-1-(5′-((dimethylamino)methyl)-2,2-difluoro-7′-((2-(methylamino)-1H-imidazol-1-yl)methyl)-1′-one-1′H-spiro[cyclopropan-1,4′-isoquinoline]-2′(3′H)-yl)ethyl)-4-ethoxynicotinonitrile formate salt]",< 20 nM,1400 nM,466 time,3 nM,< 50 nM,–
"CCOc1cc([C@H](C)N2CC3(CC3)c3c(CN(C)C)cc(Cn4ccnc4NC)cc3C2=O)ncc1F [Compound 1, (S)-5′-((dimethylamino)methyl)-2′-(1-(4-ethoxy-5-fluoropyridine-2-yl)ethyl)-7′-((2-(methylamino)-1H-imidazol-1-yl)methyl)-2′,3′-dihydro-1′H-spiro[cyclopropan-1,4′-isoquinoline]-1′-one]",< 20 nM,6800 nM,357 time,19 nM,50 to 200 nM,–
"CCOc1cc([C@H](C)N2CC3(CCC3)c3c(CN(C)C)cc(Cn4ccnc4NC)cc3C2=O)ncc1C#N [Compound 23, (S)-6-(1-(5′-((dimethylamino)methyl)-7′-((2-(methylamino)-1H-imidazol-1-yl)methyl)-1′-one-1′H-spiro[cyclobutan-1,4′-isoquinoline]-2′(3′H)-yl)ethyl)-4-ethoxynicotinonitrile]",< 20 nM,1400 nM,350 time,4 nM,< 50 nM,–
"CCOc1cc(CN2CC3(CCC3)c3c(CN4CCN(C)CC4)cc(Cn4ccnc4NC)cc3C2=O)nn1C [Compound 87, 2′-((5-ethoxy-1-methyl-1H-pyrazole-3-yl)methyl)-7′-((2-(methylamino)-1H-imidazol-1-yl)methyl)-5′-((4-methylpiperazin-1-yl)methyl)-2′,3′-dihydro-1′H-spiro[cyclobutan-1,4′-isoquinoline]-1′-one]",< 20 nM,–,–,–,< 50 nM,–
"CCOc1cc([C@H](C)N2C[C@]3(CC3(F)F)c3c(CN(C)C)cc(Cn4ccnc4NC)cc3C2=O)ncc1F [Compound 91, (S)-5′-((dimethylamino)methyl)-2′-((S)-1-(4-ethoxy-5-fluoropyridine-2-yl)ethyl)-2,2-difluoro-7′-((2-(methylamino)-1H imidazol-1-yl)methyl)-2′, 3′-dihydro-1′H-spiro[cyclopropan-1,4′-isoquinoline]-1′-one]",< 20 nM,3100 nM,310 time,10 nM,< 50 nM,–
CCOc1cc([C@H](C)N2CC3(CC(F)(F)C3)c3c(CN(C)C)cc(Cn4ccnc4NC)cc3C2=O)ncc1F [Compound 98],< 20 nM,–,–,–,50 to 200 nM,–
CCOc1cc([C@H](C)N2CC3(CC(F)(F)C3)c3c(CN(C)C)cc(Cn4ccnc4NC)cc3C2=O)ncc1C#N [Compound 99],< 20 nM,1200 nM,300 time,4 nM,< 50 nM,–
"[2H]C([2H])([2H])N(Cc1cc(Cn2ccnc2NC)cc2c1C1(CCC1)CN(C(C)c1cc(OCC)c(C#N)cn1)C2=O)C([2H])([2H])[2H] (stereo not drawn) [Compound 100, 6-(1-(5′-((bis(methyl-d3)amino)methyl)-7′-((2-(methylamino)-1H-imidazol-1′-yl)methyl)-1′-oxo-1′H-spiro [cyclobutan-1,4′-isoquinoline]-2′(3′H)-yl)ethyl)-4-ethoxynicotinonitrile]",< 20 nM,1600 nM,320 time,5 nM,< 50 nM,–
[2H]C(C)(c1cc(OCC)c(C#N)cn1)N1CC2(CCC2)c2c(CN(C)C)cc(Cn3ccnc3NC)cc2C1=O (stereo not drawn) [Compound 101],< 20 nM,–,–,–,< 50 nM,–
"CNc1nccn1Cc1cc(CN(C)C)c2c(c1)C(=O)N(C(C)c1ccc(F)c(OC)c1)CC21CCC1 (stereo not drawn) [Compound 107, 5′-((dimethylamino)methyl)-2′-(1-(4-fluoro-3-methoxyphenyl)ethyl)-7′-((2-(methylamino)-1H-imidazol-1-yl)methyl)-2′,3′-dihydro-1′H-spiro[cyclobutan-1,4′-isoquinoline]-1′-one]",< 20 nM,–,–,–,< 50 nM,–
"[2H]C([2H])([2H])C([2H])([2H])Oc1cc(C(C)N2CC3(CCC3)c3c(CN(C)C)cc(Cn4ccnc4NC)cc3C2=O)ncc1C#N (stereo not drawn) [Compound 111, 6-(1-(5′-((dimethylamino)methyl)-7′-((2-(methylamino)-1H-imidazol-1-yl)methyl)-1′-oxo-1′H-spiro[cyclobutan-1,4′-isoquinoline]-2′(3′H)-yl)ethyl)-4-(ethoxy-d5)nicotinonitrile]",< 20 nM,–,–,–,< 50 nM,–
"(S)-4-ethoxy-6-(1-(7′-((2-(methylamino)-1H-imidazol-1-yl)methyl)-5′-(morpholinomethyl)-1′-one-1′H-spiro[cyclopropan-1,4′-isoquinoline]-2′(3′H)-yl)ethyl)nicotinonitrile [Compound 60]",< 20 nM,–,–,–,–,< 50 nM
